The values below come from patent US7718613B2, “Armed peptides” (priority 2001, dated 2010).

The star is where a group is joined. Myristoyl = CCCCCCCCCCCCCC(=O)*

Test [1] can be described thus: Cloaking of peptide activity with pH and DNA binding, calcein liposome lysis. How it is done:
Calcein liposomes containing (5 μM lipid) were added to 2 ml phosphate buffered saline containing the peptide (0.4 μM) and the fluorescence recorded. This was carried out at pH values of 6.6 and 7.4. The fluorescence intensity indicative of leakage after five minutes was expressed as a % of lysis obtained with 10 μl of 10% Triton-X100. the latter taken to represent 100% lysis. The experiment was repeated whereby the peptide was pre-condensed with calf thymus DNA (Sigma) at charge ratio to give minimum lysis at pH 7.4. […] Thus the DNA condensate of the peptide would require both the de-condensation and slightly acidic conditions to cause lysis. Cloaking of peptides with DNA binding and pH has obvious advantages when delivering genes via the endosome route where low pH is encountered. A combination of highly anionic region (towards the N terminal end of peptide 13 table 1 residues LEAALAEALEAL) and highly cationic region (the c terminal end of peptide 13 table 1, residues RRRRQQ,) within the same polypeptide sequence is critical to this fuction.
To assess condensation of DNA to peptide and its effect on cytolytic activity, assays were performed at several different pH values and at different peptide to DNA ratios. […] The peptide or complexes have a property of retaining high basic character on one end which is essential for DNA binding while retaining highly acidic character on the other half of the molecule which is critical for pH switching.

Test [2] in a line: Detection of VTB epitope and VTB subunit by pH arming liposomal assay.
The nature of test [3]: Liposome-peptide integral complex: pH-triggered calcein release and stability. The conditions noted are these: after Sepharose CL-6B column, FIG. 8A. The source says:
A fatty acid incorporated on the N-terminal of peptide anchors the sequence with liposomes to form integral complex which can then be used as single stable reagent that can be triggered to release the contents-of the liposomoes when the pH is ideal (i.e physiological 7.4) or acidic (e.g 6.2). In the first instance we prepared the liposome-peptide complex at a predetermined ratio of lipid-to peptide (30:1) in pH 8 buffer using peptide 10. […] The complex between liposomes and peptide was formed by adding peptide to […] of 10 mM NaP containing 140 mM NaCl, 1 mM EDTA, 5 mM Hepes pH 8 buffer, containing 100 μl of calcein encapsulating liposomes. The mixture was incubated for 20 mins to form the complex prior to use. In order to ascertain that the lysis is occurring due to the formation of complex and not as the action of the peptide per se it was essential to purify the liposome-peptide complex. The peptide to lipid ratio in this complex is 1:30. The complex was applied to a Sepharose CL-6B column. Fractions corresponding to liposomes were collected as clearly visible to the eye. Aliquots of these fractions were then tested for lytic activity at acidic and physiological pH values. The key aim was to establish that the peptide is liposome associated and would thus be eluted with liposome fraction in the void volume. We used 100 μl complex (a column purified fraction) and followed the release of Calcein at two different pH values.
FIG. 8A. […] Upper curve pH 5.8. Lower curve pH 7.4.
2 ml buffer (10 mM Na phosphate, 140 mM NaCl, 1 mM EDTA, 5 mM HEPES)+50 μl purified complex. Lipsomes used were 50 nm extruded. Curves top to bottom are pH 6.2, 6.4, 6.7, 7.0, 7.4
Complex 20 μl liposomes+60 μl pH 8 buffer+20 μl peptide (0.1 mg/ml) prepared and used within 2 minutes. 10 μl was added to each of the cuvettes containing 2 ml buffers. Top curve pH 6.2 (triton was added towards the end indicated by sharp dip in fluorescence to check full lysis), the lower curve is at pH 7.4. Samples measured simultaneously.
5 μL of complex in 2 ml of buffer tested 20 minutes after preparation. Upper curve pH 6.2, Lower curve pH 7.4.
5 μL of complex in 2 ml of buffer tested 5 hrs after preparation. Upper curve pH 6.2 and lower curve pH 7.4.
5 μL of complex in 2 ml of buffer tested 24 hrs after preparation curve pH 6.2, Lower curve pH 7.4.

A short description of test [4]: Activation of phosphorylated peptide by alkaline phosphatase, calcein liposome lysis. As to the method:
Alkaline phosphatase (bovine intestinal mucosa) obtained from Sigma was used for dephosphorylation of peptide at the serine phosphate. A 10 μl of Peptide solution (0.01 mg/ml) was added to 2 ml of 10 mM HEPES buffer at pH 6.8 and 10 units of alkaline phosphatase added. After allowing 10-minute incubation for dephosphorylation calcein liposomes (5 μM lipid) were added and fluorescence intensity recorded using wavelengths of 490 nm for excitation and 520 nm for emission. Control experiment was conducted in the absence of alkaline phosphates. […] Thus the enzyme treatment yielded the dephosphorylated peptide resulting in activation of the peptide under mildly acidic conditions 3 μl of 0.1 mg/ml of peptide 12 (table 1) was incubated for 10 minutes with alkaline phosphatase in 20 μl 10 mM Tris-HCL pH 8 buffer. This was then added (see arrow on FIG. 14B) to 2 ml PBS pH 6.6 buffer containing 3 μl of calcein liposomes (3 mg/ml lipid concentration). Fluorescence was recorded as a function of time with excitation and emission wavelengths of 490 nm and 520 nm respectively. A similar experiment was carried out in the absence of alkaline phosphatase.

“Myr-LEAALAEALEALAAGKPALISWIRRRRQQ-Amide (Myristoyl-LEAALAEALEALAAGKPALISWIRRRRQQ-NH2; SMILES CCCCCCCCCCCCCC(=O)N[C@@H](CC(C)C)C(=O)N[C@@H](CCC(=O)O)C(=O)N[C@@H](C)C(=O)N[C@@H](C)C(=O)N[C@@H](CC(C)C)C(=O)N[C@@H](C)C(=O)N[C@@H](CCC(=O)O)C(=O)N[C@@H](C)C(=O)N[C@@H](CC(C)C)C(=O)N[C@@H](CCC(=O)O)C(=O)N[C@@H](C)C(=O)N[C@@H](CC(C)C)C(=O)N[C@@H](C)C(=O)N[C@@H](C)C(=O)NCC(=O)N[C@@H](CCCCN)C(=O)N1CCC[C@H]1C(=O)N[C@@H](C)C(=O)N[C@@H](CC(C)C)C(=O)N[C@H](C(=O)N[C@@H](CO)C(=O)N[C@@H](Cc1c[nH]c2ccccc12)C(=O)N[C@H](C(=O)N[C@@H](CCCNC(=N)N)C(=O)N[C@@H](CCCNC(=N)N)C(=O)N[C@@H](CCCNC(=N)N)C(=O)N[C@@H](CCCNC(=N)N)C(=O)N[C@@H](CCC(N)=O)C(=O)N[C@@H](CCC(N)=O)C(N)=O)[C@@H](C)CC)[C@@H](C)CC) [Peptide 13]”: in test [1] (0.4 μM peptide, pH 6.6 vs 7.4, five minutes, FIG. 15), the “lysis of calcein liposomes when no DNA is present” value is “activated by acidic pH”. In addition, the “cytolytic activity with DNA at acidic pH” value in test [1] (DNA substantially dissociated) is recorded as “activity is regained”. In addition, the “effect of DNA binding on peptide activity” value in test [1] (pre-condensed with calf thymus DNA, FIG. 15) is recorded as “substantial inactivation”. The “cytolytic activity bound to DNA at physiological pH” value in test [1] (several peptide to DNA ratios) is “inactive”.
As to “Myr-EAALAEALAEALAEGK(ELFTNR)PALISWRRRLQQ-amide [peptide 6]”, in test [2] (VTB subunit competing for anti-epitope antibody, pH 6.8, FIG. 7), the “detection of VTB subunit by release of calcein” value is “could also be detected”. The “pH sensitivity of cytolytic activity” value in test [2] (analogous to parent Peptide 2) is listed as “pH sensitive”. For the same substance, the “detection of VTB epitope by release of calcein” value in test [2] (free epitope (ELFTNR) competing for 6 μg anti-epitope antibody, FIG. 6) was “could be detected”.
As for “Myr-WBALAEALAEALAEHLAKALAEALEALAA-Amide [peptide 10]”, in test [3] (peptide to lipid 1:30, pH 5.8), the “Calcein release from purified liposome-peptide complex at pH 5.8” value was “acid triggered release”. The “Calcein release from purified liposome-peptide complex at pH 7.4” value in test [3] (peptide to lipid 1:30, pH 7.4) is recorded as “little or no release”.
Turning to “Myr-WEA ALA EAL AEA S(Phospho)AE HLA RAL AEA LEA LAA-Amide [peptide 12]”, the “dye release in the presence of alkaline phosphatase, pH 6.8” value in test [4] (10 units alkaline phosphatase, 10 mM HEPES pH 6.8, FIG. 14A) is listed as “substantial dye release”. Also, the “dye release, enzyme treated peptide, pH 6.6” value in test [4] (alkaline phosphatase pre-incubation pH 8, then PBS pH 6.6, FIG. 14B curve 1) is “release of the dye”. Besides, the “dye release, non-treated peptide, pH 6.6” value in test [4] (no alkaline phosphatase, PBS pH 6.6, FIG. 14B curve 2) is reported as “no or little rate increase”. Further, the “dye release in the absence of enzyme, pH 6.8” value in test [4] (no alkaline phosphatase, pH 6.8, FIG. 14A) was “low release”.
